Source: US8044100B2, “Methods and compositions for treating amyloid-related diseases” (Bellus Health Inc., priority 2004, dated 2011)

Assays:
[1] = tested on: Aβ peptides (Aβ40, Aβ42) in the plasma and brain of TgCRND8 mice; assay: Short term treatment (14 or 28 days) in TgCRND8 mice: Aβ levels in plasma and brain by ELISA; assay type: in vivo, mouse; conditions: for Aβ40 Change Insoluble / Aβ42 Change Insoluble / Aβ42 Change Soluble / Aβ40 Change Soluble: brain homogenate; for Aβ42 Change / Aβ40 Change: plasma;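 on Aβ40 Change Insoluble: symbols grade percent change in Aβ versus untreated control with plus for increase and minus for decrease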;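 on Aβ40 Change Soluble: symbols grade percent change in Aβ versus untreated control with plus for increase and minus for decrease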;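 on Aβ42 Change Insoluble: symbols grade percent change in Aβ versus untreated control with plus for increase and minus for decrease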
Procedure: The short term therapeutic effect of 19 compounds of the invention was studied. These compounds were administered over a 14 or 28 day period at the end of which the levels of Aβ peptides in the plasma and brain of TgCRND8 animals were determined.
Male and female transgenic mice from the 3rd and 4th B6C3F1 generations were used in this example and given daily subcutaneous or oral administrations of one of a series of compounds for 14 or 28 days. The following abbreviations are used to designate these animals from the 3rd and 4th generation backcross in the present protocol: TgCRND8-2.B6C3F1(N3); TgCRND8-2.B6C3F1 (N4).
Baseline animals (Group 1) consisted of naive TgCRND8-2. B6C3F1(N3) at 11±1 weeks of age. These mice were used to determine the Aβ levels in the plasma and brain of naive transgenic animals at the initiation of treatment.
Starting at 11 weeks of age (±1 week) animals received daily administration of their respective treatment for a period of 14 or 28 days (groups 2-21), at a dose of 250 mg/kg at 10 ml/kg or of vehicle only (water; group 2) or 1% methyl cellulose only (group 21). The route of administration was subcutaneous for water-soluble compounds and oral for compounds solubilized in methylcellulose 1%. (MC 1%). At the end of the treatment periods, plasma and perfused brains were collected for quantification of Aβ levels.
At 11±1 weeks of age for the Baseline group, and at the end of the treatment period (14 or 28 days) for Groups 2 to 21, at 24 hours after the last compound administration animals were sacrificed and samples collected. An approximate blood volume of 500 μl was collected from the orbital sinus and kept on ice until centrifugation at 4° C. at a minimum speed of 3,000 rpm for 10 minutes. Plasma samples were immediately frozen and stored at −80° C. pending analysis. The brains were removed, frozen, and stored at −80° C. awaiting analysis.
Brains were weighted frozen and homogenized with 4 volumes of ice cold 50 mM Tris-Cl pH 8.0 buffer with protease inhibitor cocktail (4 mL of buffer for 1 g of wet brain). Samples were spun at 15000 g for 20 minutes and the supernatants were transferred to fresh tubes. One hundred fifty (150) μl from each supernatant were mixed with 250 μl of 8M guanidine-HCL/50 mM Tris-HCL pH 8.0 (ratio of 0.6 vol supernatant:1 vol 8M guanidium/Tris-HCL 50 mM pH8.0) and 400 μL 5 M guanidium/Tris-HCL 50 mM pH8.0 were added. The tubes were vortexed for 30 seconds and frozen at −80° C. In parallel, pellets were treated with 7 volumes of 5 M guanidine-HCL/50 mM Tris-HCL pH 8.0 (7 mL of guanidine for 1 g of wet brain), vortexed for 30 seconds and frozen at −80° C. Samples were thawed at room temperature, sonicated at 80° C. for 15 minutes and frozen again. This cycle was repeated 3 times to ensure homogeneity and samples were returned to −80° C. pending analysis.
Aβ levels were evaluated in plasma and brain samples by ELISA using Human Aβ40 and Aβ42 Fluorometric ELISA kits from Biosource (Cat. No. 89-344 and 89-348) according to manufacturer's recommended procedures. In short, samples were thawed at room temperature, sonicated for 5 minutes at 80° C. (sonication for brain homogenates; no sonication for plasma samples) and kept on ice. Aβ peptides were captured using 100 μl of the diluted samples to the plate and incubated without shaking at 4° C. overnight. The samples were aspirated and the wells were rinsed 4 times with wash buffer obtained from the Biosource ELISA kit. The anti-Aβ40 or anti-Aβ42 rabbit polyclonal antiserum (specific for the Aβ40 or Aβ42 peptide) was added (100 μl) and the plate was incubated at room temperature for 2 hours with shaking. The wells were aspirated and washed 4 times before adding 100 μl of the alkaline phosphatase labeled anti-rabbit antibody and incubating at room temperature for 2 hours with shaking. The plates were then rinsed 5 times and the fluorescent substrate (100 μl) was added to the plate. […]

[2] = tested on: amyloid plaques in the brains of TgCRND8 mice; assay: ThioS histology of brain sections of TgCRND8 mice: number of plaques and area occupied; assay type: in vivo, mouse; conditions: for Change in Plaque Area / Change in Plaque Number: 16 wks, ThioS
Procedure: For the ThioS studies, the plaques in the brains of the mice were quantified as follows. Mice were transcardially perfused with saline solution. Brains were dissected out and separated in 2 hemispheres. The left hemisphere was immersed in freshly-prepared 4% paraformaldehyde for 3 hrs at 4° C., then transfered into 30% sucrose at 4° C. When cryoprotection was achieved (24-48 hours), brains were frozen in isopentane at −45° C. and subsequently stored at −80° C. until sectioning. Coronal 40 μm-thick sections were performed, and stained with thioflavin S (1% solution in water) for 8 min. After differentiation of the thioflavin S staining, sections were counterstained with hematoxylin for 5 minutes. Two sets of pictures were captured simultaneously. A first set of pictures was captured under brightfield illumination to obtain morphological details of the section; a second set of pictures was captured under a green, specific, fluorescent filter (fluorescein filter, Ex 495 nm, Em 525 nm). Image analysis to quantify the number of plaques and the area occupied by these plaques was performed using Image Pro Plus software (Media Cybernetics, MD, USA).
Increases in the areas and numbers of plaques are indicated using “+” symbols, while decreases in the areas and numbers of the plaques are indicated using “−” symbols.
Specifically, increases in the areas and numbers of plaques (relative to vehicle treated control) of 10 to 19.99% are scored as “+”. Decreases in the areas and numbers of plaques of 10 to 19.99% are scored as “−”. Additionally, changes of 9.99% or less in either direction are scored as “0”.

[3] = Day 14, methylcellulose group, daily oral
[4] = Day 28, methylcellulose group, daily oral
[5] = Day 14, vehicle group, 250 mg/kg daily
[6] = Day 28, vehicle group, 250 mg/kg daily
[7] = Day 14, vehicle (water) group, 250 mg/kg daily subcutaneous
[8] = 30 mg/kg, ThioS staining of brain sections, preliminary

O=S(=O)(O)CCCNC12CC3CC(CC(C3)C1)C2 [BW]
Aβ40 Change Insoluble [1, 3]: −−− (decreases of 39% or more)
Aβ42 Change Insoluble [1, 3]: −−− (decreases of 39% or more)
Aβ42 Change Soluble [1, 3]: −− (decreases of 20 to 38%)
Aβ40 Change Insoluble [1, 4]: − (Decreases in the levels of Aβ of 5 to 19%)
Aβ40 Change Soluble [1, 4]: − (Decreases in the levels of Aβ of 5 to 19%)
Aβ42 Change Insoluble [1, 4]: −− (decreases of 20 to 38%)
Aβ42 Change Soluble [1, 4]: − (Decreases in the levels of Aβ of 5 to 19%)
Aβ42 Change [1, 4]: + (increases in the levels of Aβ (relative to untreated control) of 20 to 39%)
Change in Plaque Area ([2]; 30 mg/kg): 0 (changes of 9.99% or less in either direction)
Change in Plaque Number ([2]; 30 mg/kg): 0 (changes of 9.99% or less in either direction)
Change in Plaque Area ([2]; 100 mg/kg): 0 (changes of 9.99% or less in either direction)
Change in Plaque Number ([2]; 100 mg/kg): − (Decreases in the areas and numbers of plaques of 10 to 19.99%)

CC(C)(C)NCCCS(=O)(=O)O [BX, 3-(t-butyl)amino-1-propanesulfonic acid]
levels of Aβ peptides in the plasma ([1]; after 14 and 28 days of treatment): significant increase
Aβ40 Change Insoluble [1, 5]: −−− (decreases of 39% or more)
Aβ40 Change Soluble [1, 5]: − (Decreases in the levels of Aβ of 5 to 19%)
Aβ42 Change Insoluble [1, 5]: −−− (decreases of 39% or more)
Aβ42 Change Soluble [1, 5]: −− (decreases of 20 to 38%)
Aβ40 Change Insoluble [1, 6]: −−− (decreases of 39% or more)
Aβ40 Change Soluble [1, 6]: −−− (decreases of 39% or more)
Aβ42 Change Insoluble [1, 6]: − (Decreases in the levels of Aβ of 5 to 19%)
Aβ42 Change Soluble [1, 6]: −− (decreases of 20 to 38%)
Aβ40 Change [1, 7]: +++ (increases of 70% or higher)
Aβ42 Change [1, 7]: ++ (increases of 40 to 69%)
Aβ40 Change ([1]; Day 28, vehicle (water) group, 250 mg/kg daily subcutaneous): +++ (increases of 70% or higher)
Change in Plaque Area ([2]; 30 mg/kg): − (Decreases in the areas and numbers of plaques of 10 to 19.99%)
Change in Plaque Number ([2]; 30 mg/kg): − (Decreases in the areas and numbers of plaques of 10 to 19.99%)
area occupied by the plaques [2, 8]: decreased
number of plaques [2, 8]: decreased
Change in Plaque Area ([2]; 100 mg/kg): + (increases in the areas and numbers of plaques (relative to vehicle treated control) of 10 to 19.99%)
Change in Plaque Number ([2]; 100 mg/kg): 0 (changes of 9.99% or less in either direction)
